From patent US11214835B1, “Methods and compositions for diagnosis and management of neurodegerative diseases” (UNIVERSITY OF SOUTH FLORIDA, priority 2017, dated 2022)

Experiments:
NEAT1, MALAT1 = experiment: Levels of other lncRNAs in neurons by qPCR (specificity); type: cell-based, mouse
neuronal cells = experiment: WST-1 cellular toxicity assay (Roche); type: cell-based
GAS5 = GAS5 stabilization in HT22 cells over-expressing UPF1, SYBR Green qPCR; type: cell-based, mouse; settings: pre-treated 10 nM for 1 hour, then UPF1 transfection for 24 hours
Procedure: As the compound(s) were designed to bind to GAS5 such that it would disrupt binding to UPF1, the compound(s) ability to bind to GAS5 was examined. RNA-EMSA (REMSA) was performed as previously described. Briefly, GAS5 was cloned in TOPO vector which has the T7 promoter. In vitro transcription assay was performed with biotin-label using RiboScribe kit using T7 RNA polymerase at 37° C. for 2 h in the presence of nucleotides, RNase inhibitor, and 5× transcription buffer. 0.1 nM of transcribed, biotin-labeled GAS5 was incubated with 10 nM NPG567 in presence of 10U yeast tRNA and 10 units of RNase inhibitor in a final volume of 10 μl of RNA shift buffer for 20 min at room temperature, detected using Biotin Chromogenic Detection kit (ThermoFisher). […] Next, it was evaluated whether NPG567 could stabilize GAS5 in HT22 cells over-expressing UPF1 (from Addgene). UPF1 was transiently transfected for 24 h (UPF oe) or pre-treated with NPG567 (10 nM) for 1 hour followed by transfection of UPF1 for 24 hours. GAS5 levels were measured using SYBR Green qPCR. […]
Methods in brief: Cell culture: Immortalized clonal mouse hippocampal cell line (HT22) (obtained from Salk Institute) and cultured in DMEM+10% FBS. […] The cells are checked for viability and counted and plated into T-25 flasks in neurobasal media with B27 supplement. […]

C57BL/6 mice = experiment: Intranasal administration to C57BL/6 mice: brain uptake and toxicity; type: in vivo, mouse; settings: 10 nM in 10 μl
Procedure: Brain tissue was harvested after about 48 h.
Separately, NPG567 or other compounds can be administered by intranasal delivery (APP/PS1 beginning at either 6 months of age (preventive) or 12 months of age (therapeutic); dose repeated alternate days; Tg4510 beginning at either 3 months of age (preventive) or 8 months of age (therapeutic); alternate days. See FIG. 25B for a schematic of the experimental protocol. The treatment efficacy for the two modes of delivery at timeframes as shown in FIGS. 25A and 25B and described herein. Intranasal delivery is a noninvasive method that bypasses the blood-brain barrier and delivers the drug to the brain and the spinal cord, thereby avoiding any systemic side effects. […] Brain tissue was harvested after about 48 h.

NCCCC[C@H]1CN(C(=O)CCc2ccccc2)CC(=O)N[C@@H](CCC(=O)O)CN(CC(N)=O)C(=O)CCSCc2ccc(cc2)C(=O)N[C@@H](CCC(=O)O)CN(C(=O)CCC(=O)O)CC(=O)N[C@@H](CCCCN)CN(C(=O)CCCN)CC(=O)N1 [NPG567]
levels of other lncRNAs NEAT1, MALAT1 present in neurons (NEAT1, MALAT1; 10 nM, NC): did not affect | specificity (NEAT1, MALAT1; in neurons): shows specificity | cellular toxicity (neuronal cells; WST-1 assay (Roche)): does not cause cellular toxicity | toxicity to cells (neuronal cells; in neurons): not toxic to cells | GAS5 levels with UPF1 over-expression (GAS5): increases GAS5 levels | toxicity to the animals (C57BL/6 mice; C57BL/6 mice): not toxic to the animals | blood-brain barrier crossing and brain uptake (C57BL/6 mice; fluorescein-labeled, 14 week C57BL/6 mice, brain harvested after about 48 h): crossed the blood-brain barrier and taken up by the brain
